Source: ChEMBL document CHEMBL5316284, “Structural Determinants of Indole-2-carboxamides: Identification of Lead Acetamides with Pan Antimycobacterial Activity” (J Med Chem, 2023)
≈ marks a conversion by molar mass, not a printed value.

What was measured:
[1] = tested on: Mycobacteroides abscessus; experiment: Antimycobacterial activity against Mycobacterium abscessus […] assessed as inhibition of bacterial growth measured after 5 days by visual analysis; type: functional; conditions: 120 h, time 5 day
[2] = tested on: Mycobacterium tuberculosis; experiment: Antimycobacterial activity against Mycobacterium tuberculosis H37Rv mc2 6206 assessed as inhibition of bacterial growth measured after 7 days by visual analysis; type: functional; conditions: H37Rv mc2 6206, 168 h, time 7 day
[3] = Kinetic solubility of compound at pH 7.4 incubated for 6 hrs by LC-MS/MS analysis; type: physicochemical; conditions: buffer, read-out: Kinetic_solubility
[4] = Permeability of the compound by PAMPA method; type: ADME
[5] = Plasma protein binding in human at 10 ug/ml incubated for 4 hrs under shaking condition by LC/MS/MS analysis; type: ADME, cell-free; conditions: at 10 µg/mL, read-out: PPB (converted)
[6] = Metabolic stability in human liver S9 fraction assessed as parent compound remaining at 5 ug/ml after 90 mins in presence of NADPH by LC/MS analysis; type: ADME, subcellular; conditions: s9, 1.5 h, dose 5 µg/ml
[7] = tested on: THP-1; experiment: Cytotoxicity against human THP-1 cells assessed as inhibition of cell growth measured after 72 hrs by MTT assay; type: toxicity, cell-based
[8] = Selectivity index, ratio of IC50 for Cytotoxicity against human WI26VA4 cells to MIC for antimycobacterial activity against Mycobacterium abscessus […]; type: toxicity, cell-based; conditions: read-out: Selectivity Index
[9] = Selectivity index, ratio of IC50 for Cytotoxicity against human WI26VA4 cells to MIC for antimycobacterial activity against Mycobacterium tuberculosis H37Rv mc2 6206; type: toxicity, cell-based; conditions: read-out: Selectivity Index
[10] = Metabolic stability in mouse liver S9 fraction assessed as parent compound remaining at 5 ug/ml after 90 mins in presence of NADPH by LC/MS analysis; type: ADME, subcellular; conditions: s9, 1.5 h, dose 5 µg/ml
[11] = Cytotoxicity against human WI26VA4 cells assessed as inhibition of cell growth measured after 72 hrs by MTT assay; type: toxicity, cell-based

Cc1cc(C)c2cc(C(=O)NC3CCCCCCC3)[nH]c2c1
MIC [1]: 0.063 µg/mL (≈ 0.211 µM)
MIC [2]: 0.02 µg/mL (≈ 0.067 µM)
solubility kinetic at 6 h [3]: 1.6 µg/mL (≈ 5.36 µM)
permeability [4]: 0.18 10^-6 cm/s
fraction unbound at 4 h, 10 ug/ml [5]: 0.018
t1/2 [6]: 0.5 h
IC50 [7]: > 14.9 µg/mL
selectivity ratio [8]: > 237
selectivity ratio [9]: > 764

O=C(CNc1ccc(C(F)(F)F)cc1)NC12CC3CC(CC(C3)C1)C2
MIC [1]: 8 µg/mL (≈ 22.7 µM)
MIC [2]: 8 µg/mL (≈ 22.7 µM)

C[C@H]1CC[C@H](NC(=O)CNc2ccc(Cl)cc2)CC1
MIC [1]: > 64 µg/mL
MIC [2]: 64 µg/mL (≈ 228 µM)

O=C(CNc1ccc(OC(F)(F)F)cc1)NC12CC3CC(CC(C3)C1)C2
MIC [1]: 2 µg/mL (≈ 5.43 µM)
MIC [2]: 16 µg/mL (≈ 43.4 µM)
solubility kinetic at 6 h [3]: 6.79 µg/mL (≈ 18.4 µM)
permeability [4]: 0.47 10^-6 cm/s
fraction unbound at 4 h, 10 ug/ml [5]: 0.002
t1/2 [6]: 3.1 h
t1/2 [10]: 4.1 h
IC50 [11]: > 20 µg/mL
selectivity ratio [8]: > 10
selectivity ratio [9]: > 1.2

O=C(CNc1ccc(Br)cc1)NC1C2CC3CC(C2)CC1C3 (stereo not drawn)
MIC [1]: 4 µg/mL (≈ 11 µM)
MIC [2]: 4 µg/mL (≈ 11 µM)

C[C@@H]1[C@H]2C[C@@H](C[C@H]1NC(=O)CNc1ccc(C(F)(F)F)cc1)C2(C)C
MIC [1]: 32 µg/mL (≈ 90.3 µM)
MIC [2]: 16 µg/mL (≈ 45.1 µM)

O=C(CNc1ccc(C(F)(F)F)cc1)NC1C2CC3CC(C2)CC1C3 (stereo not drawn)
MIC [1]: 4 µg/mL (≈ 11.4 µM)
MIC [2]: 2 µg/mL (≈ 5.68 µM)
solubility kinetic at 6 h [3]: 23.9 µg/mL (≈ 67.8 µM)
permeability [4]: 0.34 10^-6 cm/s
fraction unbound at 4 h, 10 ug/ml [5]: 0.057
t1/2 [6]: 5.8 h
t1/2 [10]: 15.6 h
IC50 [11]: > 20 µg/mL
selectivity ratio [8]: > 5
selectivity ratio [9]: > 10

O=C(CNc1ccc(OC(F)(F)F)cc1)NC1CCCCCCC1
MIC [1]: 8 µg/mL (≈ 23.2 µM)
MIC [2]: 32 µg/mL (≈ 92.9 µM)

Cc1ccc(NCC(=O)N[C@@H]2C[C@@H]3C[C@H]([C@H]2C)C3(C)C)cc1
MIC [1]: 8 µg/mL (≈ 26.6 µM)
MIC [2]: 16 µg/mL (≈ 53.3 µM)

C[C@@H]1[C@H]2C[C@@H](C[C@H]1NC(=O)CNc1ccc(Br)cc1)C2(C)C
MIC [1]: 4 µg/mL (≈ 10.9 µM)
MIC [2]: 16 µg/mL (≈ 43.8 µM)

COc1ccc(NCC(=O)NC23CC4CC(CC(C4)C2)C3)cc1
MIC [1]: 32 µg/mL (≈ 102 µM)
MIC [2]: 32 µg/mL (≈ 102 µM)

O=C(CNc1ccccc1)NC1CCCCCC1
MIC [1]: > 64 µg/mL
MIC [2]: 64 µg/mL (≈ 260 µM)

C[C@@H]1[C@H]2C[C@@H](C[C@H]1NC(=O)CNc1ccccc1)C2(C)C
MIC [1]: > 64 µg/mL
MIC [2]: 64 µg/mL (≈ 223 µM)

C[C@@H]1[C@H]2C[C@@H](C[C@H]1NC(=O)CNc1ccc(OC(F)(F)F)cc1)C2(C)C
MIC [1]: 1 µg/mL (≈ 2.7 µM)
MIC [2]: 4 µg/mL (≈ 10.8 µM)
solubility kinetic at 6 h [3]: 4.5 µg/mL (≈ 12.1 µM)
permeability [4]: 3.19 10^-6 cm/s
fraction unbound at 4 h, 10 ug/ml [5]: 0.048
t1/2 [6]: 9.2 h
t1/2 [10]: 4.1 h
IC50 [11]: > 20 µg/mL
selectivity ratio [8]: > 20
selectivity ratio [9]: > 5

C[C@H]1CC[C@H](NC(=O)CNc2ccccc2)CC1
MIC [1]: > 64 µg/mL
MIC [2]: 64 µg/mL (≈ 260 µM)

O=C(CNc1ccccc1Cl)NC12CC3CC(CC(C3)C1)C2
MIC [1]: 16 µg/mL (≈ 50.2 µM)
MIC [2]: 8 µg/mL (≈ 25.1 µM)

O=C(CNc1ccccc1Br)NC12CC3CC(CC(C3)C1)C2
MIC [1]: 8 µg/mL (≈ 22 µM)
MIC [2]: 8 µg/mL (≈ 22 µM)

Cc1ccc(NCC(=O)NC2C3CC4CC(C3)CC2C4)cc1 (stereo not drawn)
MIC [1]: 16 µg/mL (≈ 53.6 µM)
MIC [2]: 4 µg/mL (≈ 13.4 µM)

O=C(CNc1ccc(C(F)(F)F)cc1)NC1CCCCCCC1
MIC [1]: 64 µg/mL (≈ 195 µM)
MIC [2]: 32 µg/mL (≈ 97.4 µM)

O=C(CNc1ccccc1)NC1C2CC3CC(C2)CC1C3 (stereo not drawn)
MIC [1]: > 64 µg/mL
MIC [2]: 16 µg/mL (≈ 56.3 µM)

Cc1ccc(NCC(=O)NC23CC4CC(CC(C4)C2)C3)cc1
MIC [1]: 32 µg/mL (≈ 107 µM)
MIC [2]: 32 µg/mL (≈ 107 µM)
